Laboratory results from patent US20260257039A1, “CONVECTION-ENHANCED THERMO-CHEMOTHERAPY CATHETER SYSTEM” (Board of Regents, The University of Texas System, priority 2022, published 2026).

Tests used:
[1] = test system: ex vivo porcine brains; settings: contrast agent infusion, literature; cited from earlier work
[2] = test system: excised pig brains
Procedure: The volume of solution that leaked into the ventricles was segmented into a separate mask (green).
In recent studies (see e.g. FIG. 62A-FIG. 62C) E. Y. Elenes et al., Journal of Engineering and Science in Medical Diagnostics and Therapy, 2020), the arborizing catheter, comprising six infusion ports, was compared to a reflux-preventing single-port catheter. Infusions of iohexol at a flow rate of 1 μL/min/microneedle were performed, using the arborizing catheter on one hemisphere and a single-port catheter on the contralateral hemisphere of excised pig brains. The volume dispersed (Va) of the contrast agent was quantified for each catheter using standard techniques (G. P. Mazzara, et al., International Journal of Radiation Oncology Biology Physics, 2004; and M. F. Dempsey, et al., American Journal of Neuroradiology, 2005).

SMILES: CC(=O)N(CC(O)CO)c1c(I)c(C(=O)NCC(O)CO)c(I)c(C(=O)NCC(O)CO)c1I (centres unmarked) [iohexol]
- voxels with a concentration between 10 and 15% [1]: ~40%
- Vd, arborizing catheter relative to single-port catheter [2]: approximately 6 times
